Laboratory results taken from publication PMC2749490 (Bioorganic & medicinal chemistry, 2009).
pIC50: −log10 of the molar value. Read-outs that look alike come from different tables or passages of the source. One block for each molecule: values may come before it. *1 amine or outer side, *2 acyl side, *3 side chain or, on linkers, in order; H or OH if unused. Where a SMILES comes first, the peptide text is derived from it. Bridges are numbered along the chain shown (N, C = ends). Where no end group is shown, it is not given here. [ ]: non-standard residue; d: D form. The star is where a group is joined. Staurosporine = CO[C@@H]1[C@H](N(C)*)C[C@H]2O[C@]1(C)n1c3ccccc3c3c4c(c5c6ccccc6n2c5c31)C(=O)NC4; Suc = O=C(CCC(=O)[*:2])[*:1]; Dap = NC[C@H](N)C(=O)O; βAla = NCCC(=O)O

Assays:
[1] = biological target: T1, cAMP-dependent protein kinase (PKA) (Homo sapiens, UniProt P17612); experiment: PKA inhibitor IC50 determination; type: biochemical
[2] = biological target: T2, PKA (Homo sapiens, UniProt P17612); experiment: PKA kinase assays in the presence of 7.5 mM DTT; type: biochemical
[3] = biological target: T2, PKA; type: biochemical; conditions: versus Kemptide
[4] = biological target: T1, cAMP-dependent protein kinase (PKA); conditions: earlier proof-of-principle studies; cited from earlier work

pIC50 [1]: < 3.00
Molecule: Nc1ncnc2c1ncn2[C@@H]1O[C@H](C(=O)O)[C@@H](O)[C@H]1O [6a]

Molecule: CC(C)[C@@H]1NC(=O)[C@H](CCCNC(=N)N)NC(=O)[C@H](Cc2ccccc2)NC(=O)[C@H]([C@@H](C)O)NC(=O)[C@@H](NC(=O)CCNC(=O)CCNC(=O)CCNC(=O)CCNC(=O)CCNC(=O)CCNC(=O)CCNC(=O)[C@H]2O[C@@H](n3cnc4c(N)ncnc43)[C@H](O)[C@@H]2O)CSSC[C@@H](C(=O)NCC(N)=O)NC(=O)CNC(=O)[C@H](Cc2ccccc2)NC1=O [compound 6] (HELM PEPTIDE1{[Nc1ncnc2c1ncn2[C@@H]1O[C@H](C(=O)[*:2])[C@@H](O)[C@H]1O].[bAla].[bAla].[bAla].[bAla].[bAla].[bAla].[bAla].C.T.F.R.V.F.G.C.G.[am]}$PEPTIDE1,PEPTIDE1,9:R3-16:R3$$$V2.0)
improvement from the adenosine derivative 6a ([1]; ratio of PKA IC50 values): > 300 fold

Molecule: CO[C@@H]1[C@H](N(C)C(=O)CCC(=O)NCCC(=O)NCCC(=O)NCCC(=O)NCCC(=O)NCCC(=O)NCCC(=O)NCCC(=O)N[C@H]2CC(=O)NC[C@@H](C(=O)NCC(N)=O)NC(=O)CNC(=O)[C@H](Cc3ccccc3)NC(=O)[C@H](C(C)C)NC(=O)[C@H](CCCNC(=N)N)NC(=O)[C@H](Cc3ccccc3)NC(=O)[C@H]([C@@H](C)O)NC2=O)C[C@H]2O[C@]1(C)n1c3ccccc3c3c4c(c5c6ccccc6n2c5c31)C(=O)NC4 [compound 7] ({Staurosporine-Suc-βAla-βAla-βAla-βAla-βAla-βAla-βAla}-DTFRVFG[Dap]G-NH2; lactam 1-8)
sensitivity to reducing conditions [2]: insensitive to reducing conditions

mode of inhibition with respect to peptide substrate (best-fit model) [3]: noncompetitive
Molecule: cyclo(CTFRVFGC)G (CTFRVFGCG; disulfide 1-8 (inferred)) [1b]

Molecule: cyclo(CTFRVFGC)G [1b]
pIC50 [4]: 4.24
